Measured values as given in PubChem BioAssay (NCI).
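A five-concentration, 48-hour dose response in 96-well plates underlies each endpoint, interpolated linearly between surrounding concentrations. At the TGI there is no net growth.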

Experiments:
Assay in all cases: inhibition of tumour cell growth, NCI panel, 48 h
MCF7 breast = test system: MCF7 breast
SK-MEL-2 melanoma = test system: SK-MEL-2 melanoma
NCI-H460 lung = test system: NCI-H460 lung
HCT-116 colon = test system: HCT-116 colon
COLO 205 colon = test system: COLO 205 colon
SF-295 CNS = test system: SF-295 CNS
MDA-MB-231 breast = test system: MDA-MB-231 breast
RPMI-8226 leukemia = test system: RPMI-8226 leukemia
UACC-62 melanoma = test system: UACC-62 melanoma
NCI-H23 lung = test system: NCI-H23 lung
SNB-75 CNS = test system: SNB-75 CNS
OVCAR-3 ovarian = test system: OVCAR-3 ovarian
K-562 leukemia = test system: K-562 leukemia
MDA-MB-435 = test system: MDA-MB-435
UACC-257 melanoma = test system: UACC-257 melanoma
SNB-19 CNS = test system: SNB-19 CNS
TK-10 renal = test system: TK-10 renal
NCI-H522 lung = test system: NCI-H522 lung
CCRF-CEM leukemia = test system: CCRF-CEM leukemia
MALME-3M melanoma = test system: MALME-3M melanoma
OVCAR-5 ovarian = test system: OVCAR-5 ovarian
ACHN renal = test system: ACHN renal
HS 578T breast = test system: HS 578T breast
T-47D breast = test system: T-47D breast
LOX IMVI melanoma = test system: LOX IMVI melanoma
RXF 393 renal = test system: RXF 393 renal
HOP-62 NSCLC = test system: HOP-62 NSCLC
EKVX NSCLC = test system: EKVX NSCLC
MOLT-4 leukemia = test system: MOLT-4 leukemia
NCI-H226 lung = test system: NCI-H226 lung
U251 CNS = test system: U251 CNS
KM12 colon = test system: KM12 colon
SK-MEL-28 melanoma = test system: SK-MEL-28 melanoma
MDA-N = test system: MDA-N
HCT-15 colon = test system: HCT-15 colon
A549 NSCLC = test system: A549 NSCLC
PC-3 prostate = test system: PC-3 prostate
UO-31 renal = test system: UO-31 renal
HT29 colon = test system: HT29 colon
BT-549 breast = test system: BT-549 breast
NCI/ADR-RES ovarian = test system: NCI/ADR-RES ovarian
SK-OV-3 ovarian = test system: SK-OV-3 ovarian
CAKI-1 renal = test system: CAKI-1 renal
DU-145 prostate = test system: DU-145 prostate
HOP-92 NSCLC = test system: HOP-92 NSCLC
IGROV1 ovarian = test system: IGROV1 ovarian
M14 melanoma = test system: M14 melanoma
SK-MEL-5 melanoma = test system: SK-MEL-5 melanoma
SR leukemia = test system: SR leukemia
SF-268 CNS = test system: SF-268 CNS
786-0 renal = test system: 786-0 renal
SW-620 colon = test system: SW-620 colon
SF-539 CNS = test system: SF-539 CNS
HCC-2998 colon = test system: HCC-2998 colon
SN12C renal = test system: SN12C renal
OVCAR-8 ovarian = test system: OVCAR-8 ovarian
OVCAR-4 ovarian = test system: OVCAR-4 ovarian
A498 renal = test system: A498 renal
HL-60(TB) leukemia = test system: HL-60(TB) leukemia

Measured: TGI

O=C1C(=Cc2ccccc2[N+](=O)[O-])N=C(c2ccccc2)N1n1c(-c2ccccc2)nc2ccccc2c1=O
68.5 µM: LOX IMVI melanoma
80.6 µM: PC-3 prostate
86 µM: HS 578T breast
88.2 µM: SK-MEL-2 melanoma
33.7 µM: HCT-116 colon
46.6 µM: UACC-62 melanoma
65 µM: NCI-H23 lung
56.2 µM: RXF 393 renal
52.4 µM: MCF7 breast
66.2 µM: KM12 colon
49.3 µM: HOP-92 NSCLC
78.7 µM: OVCAR-8 ovarian
31.8 µM: NCI-H522 lung
78 µM: CCRF-CEM leukemia
99.1 µM: NCI-H460 lung
85.3 µM: NCI-H226 lung
62.6 µM: T-47D breast | NCI/ADR-RES ovarian
87.3 µM: SN12C renal
66.6 µM: RPMI-8226 leukemia
70.4 µM: MOLT-4 leukemia
90.7 µM: UACC-257 melanoma
91.7 µM: MALME-3M melanoma
not listed: A498 renal | HL-60(TB) leukemia
> 100 µM: all other assays above

C=Cc1cnc([N+](=O)[O-])n1C
99.9 µM: HS 578T breast
98.7 µM: A498 renal
60.5 µM: SR leukemia
not listed: SK-MEL-2 melanoma | UACC-62 melanoma | SNB-75 CNS | K-562 leukemia | NCI-H522 lung | RXF 393 renal | IGROV1 ovarian | OVCAR-4 ovarian
> 100 µM: all other assays above
